Our source for the fluorescent signal values is patent US20050244907A1, “Methods, compositions, and kits for analysis of enzyme activity in cells” (Applera Corporation, priority 2003, published 2005).

One test concerns the target E. coli β-galactosidase (Escherichia coli, UniProt P00722). Particulars: psi 2 BAGα cells constitutively expressing β-galactosidase; 3 hr at 37° C.; excitation 633 nm; emission 685-710 nm (panel B).
The subject of another test is CHO cells. In words: Cell staining with liposomes containing DDAO-gal, CHO cells (FMAT fluorescence). In kind it is cell-based, Chinese Hamster. Particulars: no endogenous β-galactosidase, 3 hr at 37° C., excitation 633 nm. The method, then:
The experiments shown in FIGS. 7-9, were conducted under similar conditions to those of FIGS. 1-3, respectively, with the exception that Chinese Hamster Ovary (CHO) cells were used.

Structures are written as SMILES.

E. coli β-galactosidase, sequence (P00722 whole entry): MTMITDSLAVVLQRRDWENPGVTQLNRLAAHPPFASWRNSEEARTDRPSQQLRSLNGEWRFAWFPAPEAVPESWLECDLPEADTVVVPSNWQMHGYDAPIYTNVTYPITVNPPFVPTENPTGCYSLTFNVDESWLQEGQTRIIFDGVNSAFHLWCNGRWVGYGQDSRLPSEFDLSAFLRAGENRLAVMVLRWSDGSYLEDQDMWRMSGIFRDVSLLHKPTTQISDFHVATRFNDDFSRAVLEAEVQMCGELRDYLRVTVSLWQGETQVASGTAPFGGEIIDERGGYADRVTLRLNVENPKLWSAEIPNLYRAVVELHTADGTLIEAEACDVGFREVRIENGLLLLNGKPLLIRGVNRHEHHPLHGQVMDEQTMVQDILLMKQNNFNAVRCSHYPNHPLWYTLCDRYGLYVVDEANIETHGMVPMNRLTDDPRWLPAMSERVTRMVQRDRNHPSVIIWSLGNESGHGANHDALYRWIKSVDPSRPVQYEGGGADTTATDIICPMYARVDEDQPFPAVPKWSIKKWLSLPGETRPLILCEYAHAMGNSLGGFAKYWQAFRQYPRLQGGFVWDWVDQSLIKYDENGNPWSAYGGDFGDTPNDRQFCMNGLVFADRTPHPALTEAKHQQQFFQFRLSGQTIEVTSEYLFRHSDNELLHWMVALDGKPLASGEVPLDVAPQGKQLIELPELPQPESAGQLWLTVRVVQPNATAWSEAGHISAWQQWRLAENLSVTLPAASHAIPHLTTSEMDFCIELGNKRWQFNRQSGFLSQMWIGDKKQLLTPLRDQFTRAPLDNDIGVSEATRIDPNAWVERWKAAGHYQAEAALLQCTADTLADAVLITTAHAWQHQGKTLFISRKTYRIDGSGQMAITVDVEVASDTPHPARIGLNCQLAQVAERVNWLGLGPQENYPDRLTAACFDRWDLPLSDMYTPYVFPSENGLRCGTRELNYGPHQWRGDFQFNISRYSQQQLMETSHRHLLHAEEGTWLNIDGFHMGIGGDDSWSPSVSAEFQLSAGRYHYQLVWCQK
Description for E. coli β-galactosidase: Psi 2 BAGα cells (ATCC, catalog no. CRL-9560) in Dulbecco's modified Eagle's medium (ATCC, catalog no. 30-2002) containing 5% Fetal Bovine Serum (FBS, HyClone, catalog no. SH30071.03) and 1% penicillin-streptomycin solution (pen/strep, ATCC, catalog no. 30-2300) were seeded (200 μl/well, 10,000 cell/well) in black 96 well microtiter plates (ABI, catalog no. 4308776). […] After overnight incubation at 37° C. under 5% CO2 the supernatants were removed carefully so as not to detach the adherent cells from the wells. Solutions of liposome encapsulated DDAO-gal, liposome encapsulated DDAO and nonencapsulated DDAO-gal were prepared in the appropriate cell medium and then added to the cells (200 μl/well). The nonencapsulated DDAO-gal solution was used as a negative control (no liposome, passive uptake) and the liposome encapsulated DDAO solution was used as a positive control (DDAO is the product of DDAO-gal hydrolysis). After incubation for 3 hr at 37° C. under 5% CO2 the staining solutions were removed carefully and the cells were washed twice with Dulbecco's PBS (200 μl, ATCC, catalog no. 30-2200). PBS (200 μl) was added to the wells and the plate was read using an 8100 FMAT instrument (Applied Biosystems, an Applera Corporation business).
DDAO-gal without liposomes were used as a negative control (passive load) and liposomes containing DDAO were used as a positive control. […]

On to `CC1(C)C2=C(Cl)C(=O)C(Cl)=CC2=Nc2ccc(O[C@@H]3O[C@H](CO)[C@H](O)[C@H](O)[C@H]3O)cc21` [DDAO-gal, 9H-(1,3-dichloro-9,9-dimethylacridin-2-one-7-yl) β-D-galactopyranoside], for which the figures for the fluorescent signal result at E. coli β-galactosidase and with CHO cells were “much lower signal” and “signal observed”, respectively.
